Measured values as given in US20050096347A1, “Beta3-Adrenoreceptor agonists, agonist compositions and methods of using” (Molecular Design International, Inc., priority 1997, published 2005).
Structures can show the parent of a compound that is named as a salt. Where two headings read alike, the source gives them in different places.

Columns and labels:
Human β3 Adrenoreceptors = target: T1, Human β3 Adrenoreceptors (Homo sapiens, UniProt P13945); assay: hβ3 cAMP functional activity in CHO cells expressing human β3 adrenoreceptors (Table 8); assay type: cell-based; conditions: for EC50: read-out: hβ3 cAMP EC50(nM) +/−SEM
T1 construct: expressed in transfected cells
T1 sequence (P13945 whole entry): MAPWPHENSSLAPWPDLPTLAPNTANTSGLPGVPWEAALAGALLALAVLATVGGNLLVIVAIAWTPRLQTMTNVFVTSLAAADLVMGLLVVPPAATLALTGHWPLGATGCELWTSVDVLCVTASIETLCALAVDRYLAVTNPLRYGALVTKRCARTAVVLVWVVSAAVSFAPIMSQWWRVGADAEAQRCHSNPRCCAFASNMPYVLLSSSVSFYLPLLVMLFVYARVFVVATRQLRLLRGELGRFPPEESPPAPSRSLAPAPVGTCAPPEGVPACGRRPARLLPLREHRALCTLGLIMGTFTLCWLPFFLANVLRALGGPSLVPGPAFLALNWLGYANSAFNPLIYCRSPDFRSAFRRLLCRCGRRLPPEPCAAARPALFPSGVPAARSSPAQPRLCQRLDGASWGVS

human β2 Adrenoreceptor = target: T2, human β2 Adrenoreceptor (Homo sapiens, UniProt P07550); assay: Radioligand competition binding, human β2 adrenoreceptor expressed in CHO cells ([125I]ICYP); conditions: for pKi ± SEM, Human β2-AR: CHO cells, [125I]ICYP, N = 3-9 (Table 5)
T2 construct: expressed in transfected cells
T2 sequence (P07550 whole entry): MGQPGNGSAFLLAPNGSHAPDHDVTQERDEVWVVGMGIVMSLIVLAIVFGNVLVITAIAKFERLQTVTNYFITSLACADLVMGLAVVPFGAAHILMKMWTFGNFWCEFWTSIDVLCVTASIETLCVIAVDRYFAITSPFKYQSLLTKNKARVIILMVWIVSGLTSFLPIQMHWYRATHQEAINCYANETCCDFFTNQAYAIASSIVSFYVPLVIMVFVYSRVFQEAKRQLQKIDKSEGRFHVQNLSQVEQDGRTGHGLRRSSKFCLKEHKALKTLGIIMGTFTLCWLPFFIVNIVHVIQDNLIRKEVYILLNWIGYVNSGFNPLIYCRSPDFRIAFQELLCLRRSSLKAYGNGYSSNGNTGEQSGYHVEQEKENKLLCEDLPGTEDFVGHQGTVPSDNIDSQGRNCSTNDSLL

human β1 Adrenoreceptor = human β1 Adrenoreceptor (Homo sapiens, UniProt P08588); assay: Radioligand competition binding, human β1 adrenoreceptor expressed in CHO cells ([125I]ICYP)
human β1 Adrenoreceptor, sequence (P08588 whole entry): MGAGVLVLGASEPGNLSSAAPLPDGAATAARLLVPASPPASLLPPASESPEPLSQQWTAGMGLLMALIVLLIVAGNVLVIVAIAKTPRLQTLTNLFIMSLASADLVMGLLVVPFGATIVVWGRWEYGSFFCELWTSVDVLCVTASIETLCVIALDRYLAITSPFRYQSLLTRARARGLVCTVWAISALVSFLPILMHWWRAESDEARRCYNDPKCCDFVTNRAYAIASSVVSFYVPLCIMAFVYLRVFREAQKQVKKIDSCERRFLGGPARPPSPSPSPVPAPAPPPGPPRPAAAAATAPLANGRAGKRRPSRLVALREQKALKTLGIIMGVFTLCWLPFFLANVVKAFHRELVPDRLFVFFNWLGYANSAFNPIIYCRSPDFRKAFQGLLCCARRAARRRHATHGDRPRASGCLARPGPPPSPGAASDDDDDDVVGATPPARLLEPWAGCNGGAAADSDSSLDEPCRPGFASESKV
Procedure: Competitive and comparative binding experiments on β1 Adrenoreceptors, β2 Adrenoreceptors and β3-Adrenoreceptors expressed in CHO cells were performed as described previously. […] CHO cells grown to a confluence in 150-mL flasks were detached into Ham's F-12 medium after treatment with 0.05% trypsin-0.53 mM EDTA solution. The cells were then pelleted and washed three times with Tris-EDTA buffer (50 mM Tris-HCl, 150 mM NaCl, 20 mM EDTA, pH 7.4) and resuspended in the same buffer.
Competition binding experiments were performed in duplicates using these whole cells. […] The final volume in each tube was 0.25 mL. Nonspecific binding (5-30%) was determined in the presence of 1 μM (±)-propranolol. Incubations were carried out for 60 min at 37° C. Binding reactions were terminated by rapid filtration through Whatman GF/B glass fiber filters on a Brandel model 12-R tissue harvester. Filters were washed twice with ice cold Tris-EDTA buffer to remove free ICYP. The filters were dried under tissue harvester vacuum and radioactivity was measured by gamma scintillation spectrometry (Beckman model 8000 gamma counter, Palo Alto, Calif.). Specific binding to β Adrenoreceptor sites in these cells varied from 94 to 100%
Inhibitory concentration-50 (IC50) value of each competing drug was determined graphically from individual plots of percent radioligand bound versus log drug concentration on O-adrenoceptors and human platelets. […] Dissociation constants (Ki) for each competing drug were calculated using the equation: [formula] and the data expressed as pKi (i.e., −log Ki) values.

Human β1-AR = Human β1-AR (Homo sapiens, UniProt P08588); assay: cAMP radioimmunoassay (cAMP-RIA), CHO cells expressing human β1-AR; assay type: cell-based; design: expressed in transfected cells; conditions: percentage of maximal response of R-(−)-isoproterenol (100%)
Human β1-AR, sequence (P08588 whole entry): as above
Procedure: (§1) cAMP Radioimmunoassay (CAMP-RIA Assay). […] The precipitated protein was dissolved in 0.1N NaOH.

Human β3-AR [1] = target: T3, Human β3-AR (Homo sapiens, UniProt P13945); assay: cAMP radioimmunoassay (cAMP-RIA), CHO cells expressing human β3-AR; assay type: cell-based; design: expressed in transfected cells; conditions: for I.A., Human β3-AR, cAMP-RIA assay: percentage of maximal response of R-(−)-isoproterenol (100%)
T3 sequence (P13945 whole entry): as the sequence (P13945 whole entry) above
Procedure: as §1

rat-β3-AR [2] = target: T4, rat-β3-AR (Rattus norvegicus, UniProt P26255); assay: cAMP accumulation in CHO cells expressing rat β3-AR; assay type: cell-based; conditions: for Emax: read-out: Emax, maximal cAMP accumulation
T4 construct: expressed in transfected cells; host or cells: CHO cells
T4 sequence (P26255 whole entry): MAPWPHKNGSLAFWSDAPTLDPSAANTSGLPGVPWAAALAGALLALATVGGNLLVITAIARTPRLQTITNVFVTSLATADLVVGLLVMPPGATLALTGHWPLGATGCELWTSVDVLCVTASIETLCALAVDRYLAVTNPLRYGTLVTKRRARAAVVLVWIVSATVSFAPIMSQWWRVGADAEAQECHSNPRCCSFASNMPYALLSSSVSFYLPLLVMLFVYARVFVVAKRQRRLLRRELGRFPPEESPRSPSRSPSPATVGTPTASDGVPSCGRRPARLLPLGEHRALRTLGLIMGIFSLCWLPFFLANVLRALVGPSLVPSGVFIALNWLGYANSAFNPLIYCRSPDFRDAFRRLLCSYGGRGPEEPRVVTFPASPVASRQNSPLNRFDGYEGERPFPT
Procedure: as §1

β2-AR = β2-AR (Rattus norvegicus, UniProt P10608); assay: Relaxation of carbachol-precontracted isolated rat tracheal strips; conditions: maximal response relative to maximal response of (−)-isoproterenol
β2-AR, sequence (P10608 whole entry): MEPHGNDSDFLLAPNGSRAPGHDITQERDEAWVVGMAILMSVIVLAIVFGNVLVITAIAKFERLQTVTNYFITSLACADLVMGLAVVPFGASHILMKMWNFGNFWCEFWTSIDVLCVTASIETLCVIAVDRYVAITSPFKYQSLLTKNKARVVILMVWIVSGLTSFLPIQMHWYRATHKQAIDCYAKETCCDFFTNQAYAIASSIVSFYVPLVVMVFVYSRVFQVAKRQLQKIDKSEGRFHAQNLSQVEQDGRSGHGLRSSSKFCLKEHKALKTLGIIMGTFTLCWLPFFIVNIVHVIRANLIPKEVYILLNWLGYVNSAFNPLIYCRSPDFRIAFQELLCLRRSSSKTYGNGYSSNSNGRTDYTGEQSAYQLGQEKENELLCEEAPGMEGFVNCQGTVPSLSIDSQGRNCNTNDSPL
Procedure: (§2) Male Sprague Dawley rats (Harlan Industries, Cumberland, Ind.) housed under a 12 hour light/dark cycle and fed Purina Rodent Laboratory Chow (Ralston Purina., St. Louis, Mo.) and water ad libitum, were used for the studies. […] All tissues were suspended and equilibrated in modified Kreb's buffer in water-jacketed baths at 37° C. Resting tensions of 1 g for right atria, trachea and aorta, and of 200 mg for esophageal smooth muscle were used. All tissue responses were measured on a Grass Polygraph Model 7C with a Grass FT-03C isometric force-displacement transducer.
(§3) Carbachol-precontracted tissues were included as controls through the duration of relaxation studies.

Atypical-β/β3-AR = Atypical-β/β3-AR (Rattus norvegicus, UniProt P26255); assay: Relaxation of carbachol-precontracted rat esophageal smooth muscle; conditions: maximal response relative to maximal response of (−)-isoproterenol
Atypical-β/β3-AR, sequence (P26255 whole entry): as the sequence (P26255 whole entry) above
Procedure: as §2, §3

rat-β3-AR [3] = target: T4, rat-β3-AR; assay: Binding in CHO cells expressing rat β3-AR; conditions: mean ± SEM (n in parentheses), read-out: pKi (−log Ki) for binding, rat-β3-AR (converted)
human β3-Adrenoreceptor = target: T5, human β3-Adrenoreceptor (Homo sapiens, UniProt P13945); assay: Radioligand competition binding, human β3 adrenoreceptor expressed in CHO cells ([125I]ICYP); conditions: N = 3-9 (Table 5)
T5 construct: expressed in transfected cells
T5 sequence (P13945 whole entry): as the sequence (P13945 whole entry) above

Human β2-AR = Human β2-AR (Homo sapiens, UniProt P07550); assay: CRE-luciferase reporter gene (CRE-LUC) assay, CHO cells expressing human β2-AR; conditions: percentage of maximal response of R-(−)-isoproterenol (Table 6 B)
Human β2-AR, sequence (P07550 whole entry): as the sequence (P07550 whole entry) above
Procedure: (§4) cAMP response element (CRE)-luciferase(LUC) reporter gene (CRE-LUC) assay. […] The transfected CHO cells were seeded at a density of 40,000/well in 96 well microtiter plates (Culturplate, Packard) and allowed to grow for 20 hours. After 20 hours, the cells were treated with varying drug concentrations (10^−11 to 10^−4 M) for 4 hours. Following drug exposures, the cells were lysed and luciferase activity measured using the LucLite® assay kit (Packard). Changes in light production were measured by a Topcount® luminometer (Packard).

Human β3-AR [4] = target: T3, Human β3-AR; assay: CRE-luciferase reporter gene (CRE-LUC) assay, CHO cells expressing human β3-AR
Procedure: as §4

[5] = CHO cells (Table 8), read-out: hβ2 Binding ki
[6] = CHO cells, N.A. = Not active at 100 μM, N = 4-12, read-out: pKact ± SEM, Human β3-AR, cAMP-RIA assay (converted)

## COc1c(I)cc(CC2NCCc3nc(N)sc32)cc1I (centres unmarked)
Human β3 Adrenoreceptors
  EC50: 506 nM
Human β2 Adrenoreceptor
  Ki: 0.534 µM

## [N-]=[N+]=Nc1ccc(CC2NCCc3cc(O)c(O)cc32)cc1I (centres unmarked)
Human β1 Adrenoreceptor
  Ki: 0.0142 µM
Human β3 Adrenoreceptors
  hβ3 cAMP % Iso +/−SEM: 81 +/− 3 % Iso
  EC50: 46 nM
Human β2 Adrenoreceptor; [5]
  Ki: 0.024 µM

## Nc1c(I)cc(CC2NCCc3cc(O)c(O)cc32)cc1I (centres unmarked)
Human β1 Adrenoreceptor
  Ki: 0.0634 µM
Human β3 Adrenoreceptors
  hβ3 cAMP % Iso +/−SEM: 108 +/− 2 % Iso
  EC50: < 4 nM

## COc1cc(CC2NCCc3nc(N)sc32)cc(OC)c1OC (centres unmarked)
Human β1 Adrenoreceptor
  Ki: > 3 µM
Human β3 Adrenoreceptors
  EC50: > 3160 nM
Human β2 Adrenoreceptor; [5]
  Ki: > 3 µM

## COc1cc(CC2NCCc3cc(O)c(O)cc32)cc(OC)c1OC (centres unmarked)
Human β3 Adrenoreceptors
  EC50: < 1 nM

## COc1cc(CC2NCCc3cc(O)c(O)cc32)cc(OC)c1OC (racemic) [Compound 1, trimetoquinol, reference compound]
Human β1-AR
  I.A. ± SEM, Human β1-AR, cAMP-RIA assay: 109 ± 10%
Human β3-AR [1]
  EC50: 0.00251 µM

## CC(C)NC[C@H](O)c1ccc(O)c(O)c1 (single isomer, unassigned) [(−)Isoproterenol, isoproterenol, reference compound]
rat-β3-AR [2]; CHO
  Emax: 100%
β2-AR
  I.A. (intrinsic activity), Trachea: 1.00
Atypical-β/β3-AR
  I.A. (intrinsic activity), Esophageal Smooth Muscle (Atypical-β/β3-AR): 1.00
Human β3-AR [1]
  I.A., Human β3-AR, cAMP-RIA assay: 100%

## COc1cc2c(cc1OC)C(Cc1cc(OC)c(OC)c(OC)c1)NCC2 (centres unmarked) [6,7-Dimethoxy TMQ, reference compound]
rat-β3-AR [2]; CHO cells, mean ± SEM (n in parentheses)
  pKact (−log EC50) for cAMP accumulation, rat-β3-AR: no activity upto 3 × 10^−5 M
rat-β3-AR [3]
  Ki: 132 µM

## COc1cc2c(cc1OC)C(Cc1cc(I)c(NC(C)=O)c(I)c1)NCC2 (centres unmarked) [6,7-Dimethoxy-acetamidoDITMQ, 1-(4-Acetamido-3,5-diiodobenzyl)-6,7-dimethoxy-1,2,3,4-tetrahydroisoquinoline Hydrochloride]
rat-β3-AR [3]
  Ki: 14.5 µM

## COc1cc(CC2NCCc3cc4c(cc32)OCO4)cc(OC)c1OC (centres unmarked) [6,7-Methylenedioxy TMQ]
rat-β3-AR [2]; CHO cells, mean ± SEM (n in parentheses), read-out: pKact (−log EC50) for cAMP accumulation, rat-β3-AR (converted)
  EC50: 1.2 µM
rat-β3-AR [2]; relative to that of (−)-isoproterenol, CHO cells expressing rat-β3-AR
  Emax: 70.9 ± 4.41%
rat-β3-AR [3]
  Ki: 51.3 µM

## COc1cc(CC2NCCc3nc(N)sc32)cc(OC)c1OC.Cl.Cl (centres unmarked) [7 (B-29), 2-Amino-4-(3′,4′,5′-trimethoxyphenylmethyl)-4,5,6,7-tetrahydro-thiazolo[5,4-c]pyridine Dihydrochloride]
Human β1 Adrenoreceptor; CHO cells, [125I]ICYP, N = 3-9 (Table 5)
  pKi ± SEM, Human β1-AR: 5.21 ± 0.08
Human β3-Adrenoreceptor
  pKi ± SEM, Human β3-AR: 4.17 ± 0.05
Human β2 Adrenoreceptor
  pKi ± SEM, Human β2-AR: 6.21 ± 0.12
Human β1-AR
  I.A. ± SEM, Human β1-AR, cAMP-RIA assay: <10%
Human β3-AR [1]; [6]
  EC50: 8.71 µM
Human β3-AR [1]
  I.A., Human β3-AR, cAMP-RIA assay: 54 ± 1%

## COc1c(I)cc(CC2NCCc3nc(N)sc32)cc1I.Cl.Cl (centres unmarked) [9 (B-28), 2-Amino-4-(3′,5′-diiodo-4′-methoxyphenylmethyl)-4,5,6,7-tetrahydrothiazolo[5,4-c]pyridine Dihydrochloride]
Human β2-AR
  I.A. ± SEM, Human β2-AR, CRE-LUC assay: <15%
Human β3-Adrenoreceptor
  pKi ± SEM, Human β3-AR: 5.83 ± 0.15
Human β2 Adrenoreceptor
  pKi ± SEM, Human β2-AR: 6.37 ± 0.08
Human β3-AR [4]
  EC50: 0.195 µM
Human β3-AR [4]; percentage of maximal response of R-(−)-isoproterenol (Table 6 B)
  I.A., Human β3-AR, CRE-LUC assay: 62 ± 3%
Human β3-AR [1]; [6]
  EC50: 0.112 µM
Human β3-AR [1]
  I.A., Human β3-AR, cAMP-RIA assay: 67 ± 3%
